Laboratory results from ChEMBL document CHEMBL1275384, “Structure-activity relationships of benzimidazole-based selective inhibitors of the mitogen activated kinase-5 signaling pathway” (2010).

What was measured:
CCRF-CEM = assay: Cytotoxicity against human CCRF-CEM cells at 10 uM assessed as cell growth relative to control; format: functional; conditions: read-out: Activity
HL-60(TB) = assay: Cytotoxicity against human HL-60(TB) cells at 10 uM assessed as cell growth relative to control; format: functional; conditions: read-out: Activity
MOLT-4 = assay: Cytotoxicity against human MOLT4 cells at 10 uM assessed as cell growth relative to control; format: functional; conditions: read-out: Activity
[1] = Cytotoxicity against human […] cells at 10 uM assessed as cell growth relative to control; format: functional; conditions: read-out: Activity
SR = assay: Cytotoxicity against human SR cells at 10 uM assessed as cell growth relative to control; format: functional; conditions: read-out: Activity
A549 = assay: Cytotoxicity against human A549 cells at 10 uM assessed as cell growth relative to control; format: functional; conditions: read-out: Activity
EKVX = assay: Cytotoxicity against human EKVX cells at 10 uM assessed as cell growth relative to control; format: functional; conditions: read-out: Activity
HOP-62 = assay: Cytotoxicity against human HOP62 cells at 10 uM assessed as cell growth relative to control; format: functional; conditions: read-out: Activity
HOP-92 = assay: Cytotoxicity against human HOP92 cells at 10 uM assessed as cell growth relative to control; format: functional; conditions: read-out: Activity
NCI-H226 = assay: Cytotoxicity against human NCI-H226 cells at 10 uM assessed as cell growth relative to control; format: functional; conditions: read-out: Activity
NCI-H322M = assay: Cytotoxicity against human NCI-H322M cells at 10 uM assessed as cell growth relative to control; format: functional; conditions: read-out: Activity
NCI-H460 = assay: Cytotoxicity against human NCI-H460 cells at 10 uM assessed as cell growth relative to control; format: functional; conditions: read-out: Activity
NCI-H522 = assay: Cytotoxicity against human NCI-H522 cells at 10 uM assessed as cell growth relative to control; format: functional; conditions: read-out: Activity
COLO 205 = assay: Cytotoxicity against human COLO205 cells at 10 uM assessed as cell growth relative to control; format: functional; conditions: read-out: Activity
HCT-116 = assay: Cytotoxicity against human HCT116 cells at 10 uM assessed as cell growth relative to control; format: functional; conditions: read-out: Activity
HT-29 = assay: Cytotoxicity against human HT-29 cells at 10 uM assessed as cell growth relative to control; format: functional; conditions: read-out: Activity
KM12 = assay: Cytotoxicity against human KM12 cells at 10 uM assessed as cell growth relative to control; format: functional; conditions: read-out: Activity
SW-620 = assay: Cytotoxicity against human SW620 cells at 10 uM assessed as cell growth relative to control; format: functional; conditions: read-out: Activity
SF-295 = assay: Cytotoxicity against human SF295 cells at 10 uM assessed as cell growth relative to control; format: functional; conditions: read-out: Activity
SF-539 = assay: Cytotoxicity against human SF539 cells at 10 uM assessed as cell growth relative to control; format: functional; conditions: read-out: Activity
SNB-19 = assay: Cytotoxicity against human SNB19 cells at 10 uM assessed as cell growth relative to control; format: functional; conditions: read-out: Activity
Malme-3M = assay: Cytotoxicity against human MALME-3M cells at 10 uM assessed as cell growth relative to control; format: functional; conditions: read-out: Activity
M14 = assay: Cytotoxicity against human M14 cells at 10 uM assessed as cell growth relative to control; format: functional; conditions: read-out: Activity
SK-MEL-28 = assay: Cytotoxicity against human SK-MEL-28 cells at 10 uM assessed as cell growth relative to control; format: functional; conditions: read-out: Activity
SK-MEL-5 = assay: Cytotoxicity against human SK-MEL-5 cells at 10 uM assessed as cell growth relative to control; format: functional; conditions: read-out: Activity
UACC-257 = assay: Cytotoxicity against human UACC257 cells at 10 uM assessed as cell growth relative to control; format: functional; conditions: read-out: Activity
UACC-62 = assay: Cytotoxicity against human UACC62 cells at 10 uM assessed as cell growth relative to control; format: functional; conditions: read-out: Activity
IGROV-1 = assay: Cytotoxicity against human IGROV1 cells at 10 uM assessed as cell growth relative to control; format: functional; conditions: read-out: Activity
OVCAR-3 = assay: Cytotoxicity against human OVCAR-3 cells at 10 uM assessed as cell growth relative to control; format: functional; conditions: read-out: Activity
OVCAR-8 = assay: Cytotoxicity against human OVCAR8 cells at 10 uM assessed as cell growth relative to control; format: functional; conditions: read-out: Activity
NCI/ADR-RES = assay: Cytotoxicity against human NCI/ADR-RES cells at 10 uM assessed as cell growth relative to control; format: functional; conditions: read-out: Activity
SK-OV-3 = assay: Cytotoxicity against human SKOV3 cells at 10 uM assessed as cell growth relative to control; format: functional; conditions: read-out: Activity
786-0 = assay: Cytotoxicity against human 786-0 cells at 10 uM assessed as cell growth relative to control; format: functional; conditions: read-out: Activity
A498 = assay: Cytotoxicity against human A498 cells at 10 uM assessed as cell growth relative to control; format: functional; conditions: read-out: Activity
ACHN = assay: Cytotoxicity against human ACHN cells at 10 uM assessed as cell growth relative to control; format: functional; conditions: read-out: Activity
CAKI-1 = assay: Cytotoxicity against human Caki1 cells at 10 uM assessed as cell growth relative to control; format: functional; conditions: read-out: Activity
RXF 393 = assay: Cytotoxicity against human RXF393 cells at 10 uM assessed as cell growth relative to control; format: functional; conditions: read-out: Activity
SN12C = assay: Cytotoxicity against human SN12C cells at 10 uM assessed as cell growth relative to control; format: functional; conditions: read-out: Activity
UO-31 = assay: Cytotoxicity against human UO31 cells at 10 uM assessed as cell growth relative to control; format: functional; conditions: read-out: Activity
DU-145 = assay: Cytotoxicity against human DU145 cells at 10 uM assessed as cell growth relative to control; format: functional; conditions: read-out: Activity
MDA-MB-231 = assay: Cytotoxicity against human MDA-MB-231 cells at 10 uM assessed as cell growth relative to control; format: functional; conditions: read-out: Activity
[2] = Cytotoxicity against human Hs 578T cells at 10 uM assessed as cell growth relative to control; format: functional; conditions: read-out: Activity
BT-549 = assay: Cytotoxicity against human BT549 cells at 10 uM assessed as cell growth relative to control; format: functional; conditions: read-out: Activity
MDA-MB-468 = assay: Cytotoxicity against human MDA-MB-468 cells at 10 uM assessed as cell growth relative to control; format: functional; conditions: read-out: Activity
[3] = molecular target: T1, Dual specificity mitogen-activated protein kinase kinase 5 (Homo sapiens) (UniProt Q13163); conditions: HEK293, at 10 µM;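 note: MEK5 activity stimulated by EGF, read out as phospho-ERK5 on Western blot after 1 h treatment, expressed relative to control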
T1 sequence (whole entry): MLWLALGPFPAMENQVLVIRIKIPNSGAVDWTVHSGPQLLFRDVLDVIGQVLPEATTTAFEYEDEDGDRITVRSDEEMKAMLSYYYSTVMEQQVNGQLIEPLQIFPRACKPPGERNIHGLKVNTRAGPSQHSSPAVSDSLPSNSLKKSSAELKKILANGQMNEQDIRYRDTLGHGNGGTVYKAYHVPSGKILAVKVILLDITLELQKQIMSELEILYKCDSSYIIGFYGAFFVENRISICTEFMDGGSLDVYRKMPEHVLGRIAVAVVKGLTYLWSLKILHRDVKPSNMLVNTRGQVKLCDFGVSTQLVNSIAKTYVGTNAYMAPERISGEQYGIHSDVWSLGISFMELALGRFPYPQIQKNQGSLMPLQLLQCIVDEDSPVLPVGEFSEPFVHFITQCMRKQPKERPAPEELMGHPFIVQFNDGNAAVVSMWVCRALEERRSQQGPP
Description: Inhibition of EGF-induced MEK5 activity in HEK293 cells assessed as phosphorylated ERK5 level at 10 uM after 1 hr by Western blotting relative to control

## COc1cc(NCc2ccccc2)c2ncn(C(C)C)c2c1
CCRF-CEM
  growth at 10 µM: 93.9%
HL-60(TB)
  growth at 10 µM: 50.3%
MOLT-4
  growth at 10 µM: 78.7%
[1]
  growth at 10 µM: 71.5%
SR
  growth at 10 µM: 51.7%
A549
  growth at 10 µM: 110%
EKVX
  growth at 10 µM: 93.9%
HOP-62
  growth at 10 µM: 101%
HOP-92
  growth at 10 µM: 64.5%
NCI-H226
  growth at 10 µM: 97.1%
NCI-H322M
  growth at 10 µM: 115%
NCI-H460
  growth at 10 µM: 107%
NCI-H522
  growth at 10 µM: 87%
COLO 205
  growth at 10 µM: 118%
HCT-116
  growth at 10 µM: 103%
HT-29
  growth at 10 µM: 109%
KM12
  growth at 10 µM: 104%
SW-620
  growth at 10 µM: 146%
SF-295
  growth at 10 µM: 138%
SF-539
  growth at 10 µM: 96.2%
SNB-19
  growth at 10 µM: 90.7%
Malme-3M
  growth at 10 µM: 49.2%
M14
  growth at 10 µM: 108%
SK-MEL-28
  growth at 10 µM: 125%
SK-MEL-5
  growth at 10 µM: 122%
UACC-257
  growth at 10 µM: 106%
UACC-62
  growth at 10 µM: 97.3%
IGROV-1
  growth at 10 µM: 92.4%
OVCAR-3
  growth at 10 µM: 104%
OVCAR-8
  growth at 10 µM: 98.7%
NCI/ADR-RES
  growth at 10 µM: 96.7%
SK-OV-3
  growth at 10 µM: 110%
786-0
  growth at 10 µM: 96.5%
A498
  growth at 10 µM: 106%
ACHN
  growth at 10 µM: 106%
CAKI-1
  growth at 10 µM: 97.2%
RXF 393
  growth at 10 µM: 91.2%
SN12C
  growth at 10 µM: 104%
UO-31
  growth at 10 µM: 83.2%
DU-145
  growth at 10 µM: 136%
MDA-MB-231
  growth at 10 µM: 111%
[2]
  growth at 10 µM: 174%
BT-549
  growth at 10 µM: 55.6%
MDA-MB-468
  growth at 10 µM: 36.5%
[3]
  inhibition: 85%

## COCCCOc1cc(NCc2ccccc2)c2ncn(C(C)C)c2c1
CCRF-CEM
  growth at 10 µM: 86.8%
HL-60(TB)
  growth at 10 µM: 100%
MOLT-4
  growth at 10 µM: 88.2%
[1]
  growth at 10 µM: 89.2%
SR
  growth at 10 µM: 103%
A549
  growth at 10 µM: 94%
EKVX
  growth at 10 µM: 95.4%
HOP-62
  growth at 10 µM: 85.7%
HOP-92
  growth at 10 µM: 90.9%
NCI-H226
  growth at 10 µM: 91.6%
NCI-H322M
  growth at 10 µM: 104%
NCI-H460
  growth at 10 µM: 85.2%
NCI-H522
  growth at 10 µM: 127%
COLO 205
  growth at 10 µM: 100%
HCT-116
  growth at 10 µM: 100%
HT-29
  growth at 10 µM: 109%
KM12
  growth at 10 µM: 100%
SW-620
  growth at 10 µM: 101%
SF-295
  growth at 10 µM: 97.4%
SF-539
  growth at 10 µM: 93.5%
SNB-19
  growth at 10 µM: 90.3%
Malme-3M
  growth at 10 µM: 113%
M14
  growth at 10 µM: 104%
SK-MEL-28
  growth at 10 µM: 115%
SK-MEL-5
  growth at 10 µM: 95.8%
UACC-257
  growth at 10 µM: 101%
UACC-62
  growth at 10 µM: 91.9%
IGROV-1
  growth at 10 µM: 90.1%
OVCAR-3
  growth at 10 µM: 84.9%
OVCAR-8
  growth at 10 µM: 99.3%
NCI/ADR-RES
  growth at 10 µM: 85.3%
SK-OV-3
  growth at 10 µM: 101%
786-0
  growth at 10 µM: 95.7%
A498
  growth at 10 µM: 83.5%
ACHN
  growth at 10 µM: 95.3%
CAKI-1
  growth at 10 µM: 81.3%
RXF 393
  growth at 10 µM: 94.3%
SN12C
  growth at 10 µM: 90.8%
UO-31
  growth at 10 µM: 79.9%
DU-145
  growth at 10 µM: 99.2%
MDA-MB-231
  growth at 10 µM: 102%
[2]
  growth at 10 µM: 84.4%
BT-549
  growth at 10 µM: 90.1%
MDA-MB-468
  growth at 10 µM: 104%
[3]
  inhibition: 51%
